Measurements taken from patent publication US20090312349A1, “ANTI-INFLAMMATORY MEDICAMENTS” (priority 2004, published 2009).
Where two headings read alike, the source gives them in different places.

Target: T1, phospho p-38 alpha kinase (Homo sapiens, UniProt Q16539)
T1 construct: purchased Panvera
Test: P-38 alpha kinase assay (spectrophotometric, pyruvate kinase/lactate dehydrogenase coupled)
Format: biochemical
Experimental: In this assay, the oxidation of NADH was continuously measured spectrophometrically. […] The reaction was initiated by adding ATP. The absorption at 340 nm was monitored continuously for up to 4 hours at 30° C. on Polarstar Optima plate reader (BMG). The kinase activity (reaction rate) was calculated from the slope at the time frame from 1.5 h to 2 h.
For inhibition determinations, test compounds were incubated with the reaction mixture for ˜5 min before adding ATP to start the reaction. […] IC50 values were calculated from a series of % inhibition values determined at a range of concentrations of each inhibitor using Prism to process the data and fit inhibition curves. Generally, the rates obtained at the time frame of 1.5 h to 2 h were used for these calculations.

[1] = Table 3, rates at […] to 2 h, read-out: IC50
[2] = Table 5, assay not named, read-out: uM

T1 sequence (Q16539 whole entry): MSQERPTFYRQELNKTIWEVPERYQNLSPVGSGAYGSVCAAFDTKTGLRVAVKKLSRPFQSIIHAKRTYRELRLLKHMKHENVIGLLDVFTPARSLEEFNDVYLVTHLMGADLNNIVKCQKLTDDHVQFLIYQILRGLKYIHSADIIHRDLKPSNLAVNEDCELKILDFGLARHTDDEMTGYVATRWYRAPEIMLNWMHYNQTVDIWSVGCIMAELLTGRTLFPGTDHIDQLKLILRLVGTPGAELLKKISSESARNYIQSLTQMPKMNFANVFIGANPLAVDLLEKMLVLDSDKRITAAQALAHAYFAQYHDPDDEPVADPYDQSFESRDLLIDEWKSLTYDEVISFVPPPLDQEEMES

IC50 [2] [µM]	SMILES	also measured
–	CC(C)(C)c1cc(NC(=O)Nc2cccc(F)c2F)n(-c2ccc(CC(=O)O)cc2)n1 [Example 204, 2-(4-(3-t-butyl-5-(3-(2,3-difluorophenyl)ureido)-1H-pyrazol-1-yl)-phenyl)acetic acid]	IC50 [1]: 0.008 µM
–	COc1cccc(-n2nc(C(C)(C)C)cc2NC(=O)Nc2ccc(F)cc2)c1 [Example 206, 1-(3-t-butyl-1-(3-methoxyphenyl)-1H-pyrazol-5-yl)-3-(4-fluorophenyl)urea]	IC50 [1]: 0.013 µM
–	CC(C)(C)c1cc(NC(=O)Nc2cccc(Cl)c2Cl)n(-c2cccc(C(N)=O)c2)n1 [Example 289, 1-[3-t-butyl-1-(3-carbamoylphenyl)-1H-pyrazol-5-yl]-3-(2,3-dichlorophenyl)urea]	IC50 [1]: 1.3 µM
0.089	CC(C)(C)c1cc(NC(=O)Nc2cccc(Cl)c2)n(-c2cccc(CO)c2)n1 [Example 303]	–
0.058	COc1cccc(NC(=O)Nc2cc(C(C)(C)C)nn2-c2cccc(CO)c2)c1 [Example 306, 1-{3-t-butyl-1-[3-(hydroxymethyl)phenyl]-1H-pyrazol-5-yl}-3-(3-methoxyphenyl)urea]	–
0.049	CC(C)(C)c1cc(NC(=O)Nc2cccc3ccccc23)n(-c2cccc(CN)c2)n1 [Example 307, 1-(3-t-butyl-1-(3-(aminomethyl)phenyl)-1H-pyrazol-5-yl)-3-(naphthalen-1-yl)urea]	–
0.13	CNC(=O)Cc1cccc(-n2nc(C(C)(C)C)cc2NC(=O)Nc2cccc(Cl)c2Cl)c1 [Example 310]	–
0.182	CCOC(=O)CCc1cccc(-n2nc(-c3ccccc3)cc2NC(=O)Nc2ccc(Cl)cc2)c1 [Example 311, 3-(3-{5-[3-(4-chlorophenyl)-ureido]-3-phenyl-pyrazol-1-yl}-phenyl)-propionic acid ethyl ester]	–
0.349	COc1ccc(-n2nc(C(C)(C)C)cc2NC(=O)Nc2cccc(F)c2F)cc1 [Example 312, 1-[3-t-butyl-1-(4-methoxyphenyl)-1H-pyrazol-5-yl]-3-(2,3-difluorophenyl)urea]	–
0.25	CCOC(=O)CCc1cccc(-n2nc(C(C)C)cc2NC(=O)Nc2ccc(Cl)cc2)c1 [Example 313, ethyl 3-(3-(5-(3-(4-chlorophenyl)ureido)-3-isopropyl-1H-pyrazol-1-yl)phenyl)propanoate]	–
0.25	CCOC(=O)c1ccc(-n2nc(C(C)(C)C)cc2NC(=O)Nc2cccc(F)c2F)cc1 [Example 314, ethyl 4-{3-t-butyl-5-[3-(2,3-difluorophenyl)ureido]-1H-pyrazol-1-yl}benzoate]	–
–	CC(C)(C)c1cc(NC(=O)Nc2cccc(F)c2F)n(-c2ccc(CO)cc2)n1 [Example 315, 1-{3-t-butyl-1-[4-(hydroxymethyl)phenyl]-1H-pyrazol-5-yl}-3-(2,3-difluoro-phenyl)urea]	% @ concentration, uM (Table 5, @ 10 uM): 54% @ 10
0.42	CCOC(=O)Cc1ccc(-n2nc(C(C)(C)C)cc2NC(=O)Nc2cccc3ccccc23)cc1 [Example 316, ethyl 2-(4-{3-t-butyl-5-[3-(naphthalen-1-yl)ureido]-1H-pyrazol-1-yl}phenyl)acetate]	–
0.068	CCOC(=O)Cc1ccc(-n2nc(C(C)(C)C)cc2NC(=O)Nc2ccc(Cl)cc2)cc1 [Example 317, ethyl 2-(4-{3-t-butyl-5-[3-(4-chlorophenyl)ureido]-1H-pyrazol-1-yl}phenyl)acetate]	–
0.67	CCOC(=O)Cc1ccc(-n2nc(C(C)(C)C)cc2NC(=O)Nc2cccc(Cl)c2Cl)cc1 [Example 318]	–
0.32	CCOC(=O)Cc1cccc(-n2nc(C(C)(C)C)cc2NC(=O)Nc2cccc3ccccc23)c1 [Example 319, ethyl 2-(3-{3-t-butyl-5-[3-(naphthalen-1-yl)ureido]-1H-pyrazol-1-yl}phenyl)acetate]	–
0.79	CCOC(=O)Cc1cccc(-n2nc(C(C)(C)C)cc2NC(=O)Nc2ccc(Cl)cc2)c1 [Example 320, ethyl 2-(3-{3-t-butyl-5-[3-(4-chlorophenyl)ureido]-1H-pyrazol-1-yl}phenyl)acetate]	–
0.52	CCOC(=O)Cc1cccc(-n2nc(C(C)(C)C)cc2NC(=O)Nc2cccc(Cl)c2Cl)c1 [Example 321, ethyl 2-(3-{3-t-butyl-5-[3-(2,3-dichlorophenyl)ureido]-1H-pyrazol-1-yl}phenyl)acetate]	–
2.02	CCOC(=O)C(C)Cc1cccc(-n2nc(C(C)(C)C)cc2NC(=O)Nc2cccc(Cl)c2Cl)c1 (stereo not shown) [Example 322, ethyl 3-(3-{3-t-butyl-5-[3-(2,3-dichlorophenyl)ureido]-1H-pyrazol-1-yl}phenyl)-2-methylpropanoate]	–
–	CC(Cc1cccc(-n2nc(C(C)(C)C)cc2NC(=O)Nc2cccc(Cl)c2Cl)c1)C(=O)O (stereo not shown) [Example 323, 3-(3-{3-t-butyl-5-[3-(2,3-dichlorophenyl)ureido]-1H-pyrazol-1-yl}-1-phenyl)-2-methylpropanoic acid]	% @ concentration, uM (Table 5, @ 1 uM): 9%; % @ concentration, uM (Table 5, @ 10 uM): 51%

IC50 [2] [µM]	SMILES	also measured
–	CCOC(=O)C(C)Cc1ccc(-n2nc(C(C)(C)C)cc2NC(=O)Nc2cccc3ccccc23)cc1 (stereo not shown) [Example 324, ethyl 3-(4-{3-t-butyl-5-[3-(naphthalen-1-yl)ureido]-1H-pyrazol-1-yl}phenyl)-2-methylpropanoate]	% @ concentration, uM (Table 5, @ 10 uM): 40% @ 10
–	CC(Cc1ccc(-n2nc(C(C)(C)C)cc2NC(=O)Nc2cccc3ccccc23)cc1)C(=O)O (stereo not shown) [Example 325, 3-(4-{3-t-butyl-5-[3-(naphthalen-1-yl)ureido]-1H-pyrazol-1-yl}phenyl)-2-methylpropanoic acid]	% @ concentration, uM (Table 5, @ 10 uM): 54% @ 10
–	CCOC(=O)C(C)Cc1ccc(-n2nc(C(C)(C)C)cc2NC(=O)Nc2ccc(Cl)cc2)cc1 (stereo not shown) [Example 326, ethyl 3-(4-{3-t-butyl-5-[3-(4-chlorophenyl)ureido]-1H-pyrazol-1-yl}phenyl)-2-methylpropanoate]	% @ concentration, uM (Table 5, @ 10 uM): 41% @ 10
0.81	CC(Cc1ccc(-n2nc(C(C)(C)C)cc2NC(=O)Nc2ccc(Cl)cc2)cc1)C(=O)O (stereo not shown) [Example 327, 3-(4-{3-t-butyl-5-[3-(4-chlorophenyl)ureido]-1H-pyrazol-1-yl}phenyl)-2-methylpropanoic acid]	–
–	CCOC(=O)c1cccc(-n2nc(-c3ccccc3)cc2NC(=O)Nc2cccc3ccccc23)c1 [Example 328, ethyl 3-[5-(3-naphthalen-1-yl-ureido)-3-phenyl-pyrazol-1-yl]benzoate]	% @ concentration, uM (Table 5, @ 10 uM): 68% @ 10
0.25	CC(C)(O)c1cccc(-n2nc(-c3ccccc3)cc2NC(=O)Nc2cccc3ccccc23)c1 [Example 329, 1-{1-[3-(2-hydroxypropan-2-yl)phenyl]-3-phenyl-1H-pyrazol-5-yl}-3-(naphthalen-1-yl)urea]	–
–	O=C(Nc1ccc(Cl)cc1)Nc1cc(-c2ccccc2)nn1-c1ccc(CO)cc1 [Example 331, 1-(4-chlorophenyl)-3-{1-[4-(hydroxymethyl)phenyl]-3-phenyl-1H-pyrazol-5-yl}-urea]	% @ concentration, uM (Table 5, @ 10 uM): 71% @ 10
0.05	CCOC(=O)c1cccc(-n2nc(C(C)C)cc2NC(=O)Nc2cccc3ccccc23)c1 [Example 332, ethyl 3-(3-isopropyl-5-[3-(naphthalen-1-yl)ureido]-1H-pyrazol-1-yl)benzoate]	–
2.44	CC(C)c1cc(NC(=O)Nc2cccc3ccccc23)n(-c2cccc(C(C)(C)O)c2)n1 [Example 333, 1-{1-[3-(2-hydroxypropan-2-yl)phenyl]-3-isopropyl-1H-pyrazol-5-yl}-3-(naphthalen-1-yl)urea]	–
2.2	CCOC(=O)c1ccc(-n2nc(C(C)C)cc2NC(=O)Nc2ccc(Cl)cc2)cc1 [Example 334, ethyl 4-{5-[3-(4-chlorophenyl)ureido]-3-isopropyl-1H-pyrazol-1-yl}benzoate]	–
0.014	CC(C)c1cc(NC(=O)Nc2ccc(Cl)cc2)n(-c2ccc(CO)cc2)n1 [Example 335, 1-(4-chlorophenyl)-3-{1-[4-(hydroxymethyl)phenyl]-3-isopropyl-1H-pyrazol-5-yl}-urea]	–
–	CCOC(=O)c1cccc(-n2nc(C(F)(F)F)cc2NC(=O)Nc2cccc3ccccc23)c1 [Example 336]	% @ concentration, uM (Table 5, @ 10 uM): 27% @ 10
–	CC(C)(O)c1cccc(-n2nc(C(F)(F)F)cc2NC(=O)Nc2cccc3ccccc23)c1 [Example 337]	% @ concentration, uM (Table 5, @ 10 uM): 8% @ 10
–	CCOC(=O)c1ccc(-n2nc(C(F)(F)F)cc2NC(=O)Nc2ccc(Cl)cc2)cc1 [Example 338, ethyl 4-{5-[3-(4 chlorophenyl)ureido]-3-(trifluoromethyl)-1H-pyrazol-1-yl}benzoate]	% @ concentration, uM (Table 5, @ 2 uM): 7% @ 2
–	O=C(Nc1ccc(Cl)cc1)Nc1cc(C(F)(F)F)nn1-c1ccc(CO)cc1 [Example 339, 1-(4-chlorophenyl)-3-{3-(trifluoromethyl)-1-[4-(hydroxyl-methyl)phenyl]-1H-pyrazol-5-yl}urea]	% @ concentration, uM (Table 5, @ 2 uM): 9% @ 2
–	CCOC(=O)c1cccc(-n2nc(C)cc2NC(=O)Nc2cccc3ccccc23)c1 [Example 340, ethyl 3-{3-methyl-5-[3-(naphthalen-1-yl)ureido]-1H-pyrazol-1-yl}benzoate]	% @ concentration, uM (Table 5, @ 10 uM): 31% @ 10
1	CCOC(=O)c1cccc(-n2nc(C)cc2NC(=O)Nc2cccc(Cl)c2Cl)c1 [Example 342, ethyl 3-{5-[3-(2,3-dichlorophenyl)ureido]-3-methyl-1H-pyrazol-1-yl}benzoate]	–
0.18	CCOC(=O)c1ccc(-n2nc(C)cc2NC(=O)Nc2ccc(Cl)cc2)cc1 [Example 344, ethyl 4-{5-[3-(4-chlorophenyl)ureido]-3-methyl-1H-pyrazol-1-yl}benzoate]	–
0.27	Cc1cc(NC(=O)Nc2ccc(Cl)cc2)n(-c2ccc(CO)cc2)n1 [Example 345, 1-(4-chlorophenyl)-3-{1-[4-(hydroxymethyl)phenyl]-3-methyl-1H-pyrazol-5-yl}urea]	–
